“Also recorded” adds a separate entry of the source.
Tested on: NVHL rats
Assay: Prepulse inhibition of the acoustic startle response (PPI) in NVHL rats
Type: in vivo, Sprague-Dawley rats
Settings: adult NVHL rats
Protocol: To assess whether juvenile oxidative stress leads to behavioral deficits, a behavioral paradigm was used for testing in both animal models and schizophrenia patients. Prepulse inhibition of the acoustic startle response (PPI) is a measure of sensorimotor gating that is reduced in patients (Geyer and Braff, 1987) and NVHL rats (Lipska et al., 1995). PPI was tested in adult sham (n=11), NAC-treated sham (n=12), NVHL (n=9), and NAC-treated NVHL rats (n=17). In addition to loss of PVI maturation and electrophysiological anomalies, developmental oxidative stress in juvenile NVHL rats can cause schizophrenia-relevant adult behavioral deficits.
The beneficial effect of NAC treatment includes a large postnatal treatment that starts prior to the lesion and stops once rats become young adults. For full translational value one determines whether NAC is efficacious when started at an age that corresponds to the time when prodromal stages can be identified in humans. In another set of rats, NAC was administered in the drinking water starting at P35, an age that in rats is equivalent to early adolescence. For PPI deficits was tested in adult SHAM (n=15), untreated NVHL (n=12), and NAC-treated NVHL rats (n=14).
Ebselen is a glutathione peroxidase (GPx) mimic (Muller et al., 1984) that induces GPx expression (Kil et al., 2007) and enhances GSH levels in neurons, replenishing GSH depleted by neurotoxic mechanisms (Pawlas and Malecki, 2007). PPI was tested in adult vehicle-treated SHAM (n=10), Ebselen-treated SHAM (n=7), vehicle-treated NVHL (n=8), and Ebselen-treated NVHL rats (n=9), and Ebselen treatment during adolescence reversed PPI deficits in NVHL rats (as shown in FIG. 15D).
In another group of rats, the effects of the NADPH oxidase inhibitor Apocynin was assessed while delivering through juvenile and adolescent stages. PPI was tested in adult vehicle-treated SHAM (n=10), apocynin-treated SHAM (n=11), vehicle treated NHVL (n=7), and apocynin-treated NVHL (n=5). As illustrated in FIG. 15C a reversal of PPI deficits was observed.
Antioxidant pretreatment regimen: NAC (BioAdvantexPharma, Mississauga, Ontario, Canada) was administered in the drinking water at 900 mg/l. NAC treatment started at P5 or at P35, and previous work in mice has shown that NAC consumed by the dam is transmitted to the pups through her milk (das Neves Duarte et al., 2012). NAC treatment ended at P50. Fresh solutions were prepared every 2-3 days. Ebselen (Sound Pharmaceuticals Inc., Seattle, WA) was administered i.p. 5 days a week starting at P35 until the day of PPI testing (P60). Stock ebselen solution (20 mg/ml DMSO, frozen aliquots) was diluted 1:5 in sterile water and administered at a dose of 10 mg/kg. Control animals received an equivalent concentration of DMSO diluted 1:5 in water. Apocynin (Sigma-Aldrich, St. Louis, MO) was administered in the drinking water at a target dose of 100 mg/kg (Nwokocha et al., 2013). Prior to weaning at P21, drinking water contained a dose of 2 g apocynin per 0.5 1 of water, to ensure delivery through the dam's milk. Apocynin concentration was lowered after weaning to 750 mg/1 to best approximate the target dose. Treatment lasted from P5 to P50 with fresh solutions prepared every other day.
Prepulse inhibition: Starting at P60, both male and female rats were tested for PPI, as described previously (Feleder et al., 2010). As PPI deficits in NVHL rats are most evident when rats are challenged with apomorphine (Lipska et al., 1995), we injected apomorphine (0.1 mg/kg, i.p.) immediately prior to the PPI test session. Rats were placed in a sound- attenuated startle chamber (San Diego Instruments, San Diego, CA) with a 70 dB background white noise. After a 5 min adaptation period, the PPI test was initiated with pseudorandom trials every 15 to 25 seconds. Either pulse (120 dB), prepulse (75 dB, 80 dB, or 85 dB), no pulse or prepulse +pulse were delivered. […]

## CC(=O)N[C@@H](CS)C(=O)O [NAC, N-acetyl cysteine]
Apomorphine 0.1 mg/kg i.p. challenge, juvenile treatment P5 to P50, drinking water
  effect on PPI deficit: prevented; also recorded: completely reversed
Adolescent treatment P35 to P50, drinking water, tested P61
  effect on PPI deficit: prevented
